According to US6515025B2, “Use of ethynyl alanine amino diol compounds to inhibit enzymatic conversion of angiotensinogen to angiotensin I” (Pharmacia Corporation, priority 1991, dated 2003):
Residue numbers refer to the chain shown, from its start.

Key:
[1] = molecular target: T1, renin (Cyno Monkey plasma) (Macaca fascicularis, UniProt Q6DLS0); experiment: Renin inhibitor species specificity, cyno monkey plasma renin activity; assay type: biochemical
T1 construct: the animal plasma is the source of both the renin substrate and the renin enzyme; from tissue; host or cells: pooled cynomolgus monkey plasma
T1 sequence (Q6DLS0 67-406): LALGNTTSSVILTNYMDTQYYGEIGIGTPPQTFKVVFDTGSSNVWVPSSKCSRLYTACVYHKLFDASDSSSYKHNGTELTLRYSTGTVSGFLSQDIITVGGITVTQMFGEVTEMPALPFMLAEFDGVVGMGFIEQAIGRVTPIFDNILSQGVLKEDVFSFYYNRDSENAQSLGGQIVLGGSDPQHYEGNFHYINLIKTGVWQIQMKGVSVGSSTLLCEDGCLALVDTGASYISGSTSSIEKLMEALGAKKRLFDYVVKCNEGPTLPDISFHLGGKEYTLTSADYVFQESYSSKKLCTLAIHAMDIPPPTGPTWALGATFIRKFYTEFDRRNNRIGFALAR
Protocol: Blood was collected in a 10 ml Becton Dickinson vacutainer tube with 0.1 ml of 15% EDTA (K3) solution (15 mg) from normal animals or high renin animals; i.e., those pre-treated with 5 mg/kg of Lasix® intramuscularly 2 times within a 6 hour interval 24 hours prior to bleeding. The blood was then centrifuged at 2500 RPM for 20 minutes and the plasma from the various species respectively pooled, aliquoted and stored in the freezer. The human plasma source was taking a prescription of an angiotensin converting enzyme inhibitor.
The plasma renin activity assay is a modification of the human renin inhibition test in that the animal plasma is the source of both the renin substrate and the renin enzyme. In a total volume of 0.1 ml, 90 mM Tris-acetate buffer, pH 7.5, 12 mM sodium EDTA, 0.012 mg/ml neomycin sulfate, 0.9 mg/ml bovine serum albumin, 1.61 mM phenylmethyl sulfonyl fluoride, 4 mM 8-hydroxyquinoline and 0.09 ml of the animal or human plasmas were incubated for 2 hours at 37° C. in a shaking water bath or at 4° C. in an ice bath in the presence or absence of renin inhibitors. The produced angiotensin I was determined by radioimmunoassay (New England Nuclear kit).
The amount of angiotensin I generated during the 2 hours at 4° C. was usually less than 5% of that activity produced at 37° C.; however, the 4° C. background values were nevertheless subtracted from the 37° C. ones for the 100% activity values. The renin inhibitors were assayed in duplicate using 5 concentrations and the data is expressed as a percent of the 100% total renin activity.

[2] = molecular target: T2, human renin (Homo sapiens, UniProt P00797); experiment: Human renin inhibition in vitro; assay type: biochemical
T2 construct: purchased National Institute for Biological Standards, London
T2 sequence (P00797 67-406): T1 sequence (Q6DLS0 67-406) with A2T, L148I, A169S
Protocol: Compounds of Formula I were evaluated as inhibitors of human renin in an in vitro assay, as follows: This human renin inhibition test has been previously described in detail [Papaioannou et al., Clinical and Experimental Hypertension, A7(9), 1243-1257 (1985)]. Human renin was obtained from the National Institute for Biological Standards, London. An incubation mixture was prepared containing the following components: in a total volume of 0.25 mL: 100 mM Tris-acetate buffer at pH 7.4, 25×10^−6 Goldblatt units of renin, 0.05 mL of plasma from human volunteers taking oral contraceptives, 6.0 mM Na-EDTA, 2.4 mM phenylmethyl sulfonyl fluoride, 1.5 mM 8-hydroxyquinoline, 0.4 mg/mL bovine serum albumin (BSA), and 0.024 mg/mL neomycin sulfate. This mixture was incubated for two hours at 37° C. in the presence or absence of renin inhibitors. The produced angiotensin I was determined by radioimmunoassay (New England Nuclear kit). Test compounds to be assayed were dissolved in DMSO and diluted with 100 mM Tris-acetate buffer at pH 7.4 containing 0.5% BSA to the appropriate concentration. The final concentration of organic solvent in the reaction mixture was less than 1%. Control incubations at 37° C. were used to correct for effects of organic solvent on renin activity.

`C#CC[C@H](NC(=O)C(CC(=O)N(C)CCN(C)C)Cc1ccccc1)C(=O)NC(CC1CCCCC1)[C@@H](O)C(O)CC(C)C` (relative stereo) [Example 1, N1-[1R*-[[[1S,1R*-(cyclohexylmethyl)-2S*,3R*-dihydroxy-5-methylhexyl]amino]carbonyl]-3-butynyl]-N4-[2-(dimethylamino)ethyl]-N4-methyl-2S*-(phenylmethyl)butanediamide] was tested, and the “% of Total Renin Activity” value ([1]; 1 nM) was 81%, the “% of Total Renin Activity” value ([1]; 4 nM) was 51% and the “% of Total Renin Activity” value ([1]; 16 nM) was 18%. It also gave an IC50 [2] of 1 nM.
